Data on three compounds can be found in US20250368649A1, “TETRAHYDROPYRIDOPYRIMIDINE PAN-KRAS INHIBITORS” (Mirati Therapeutics, Inc., priority 2022, published 2025).

As a reminder, the inhibition is the drop in the measured response relative to a control, in per cent. A word on the IC50: it is the concentration that inhibits the measured activity by half. A higher IC50 goes with weaker potency in that assay.

For experiment [1], the target named is KRas WT (Homo sapiens, UniProt P01116). Description: KRas binding assay (TR-FRET displacement), KRas WT. To be noted: single point, 10 nM compound. In general terms: TR-FRET usually uses a lanthanide donor and a delayed reading to cut background.
Experiment [2] concerns the target KRas G12A (Homo sapiens, UniProt P01116, G12A). Type of experiment: binding. The note with it: single point, 10 nM compound, read-out: Binding to KRas (% inhibition at 10 nM) G12A.
The target of experiment [3] is KRas G12C (Homo sapiens, UniProt P01116, G12C). The class given is binding. To be noted: single point, 10 nM compound, read-out: Binding to KRas (% inhibition at 10 nM) G12C.
Experiment [4] has as its target KRas G12S (Homo sapiens, UniProt P01116, G12S). Type of experiment: binding. To be noted: single point, 10 nM compound, read-out: Binding to KRas (% inhibition at 10 nM) G12S.
The target of experiment [5] is KRas G13D (Homo sapiens, UniProt P01116, G13D). Type of experiment: binding. The note with it: single point, 10 nM compound, read-out: Binding to KRas (% inhibition at 10 nM) G13D.
Experiment [6] has as its target KRas Q61H (Homo sapiens, UniProt P01116, Q61H). Description: KRas binding assay (TR-FRET displacement), KRas Q61H. To be noted: single point, 10 nM compound.
Experiment [7] relates to MKN1 cells. As to the kind of experiment: Inhibition of KRas-mediated phosphorylation of ERK (Cisbio HTRF pERK), MKN1 cells. To be noted: Homo sapiens, MKN-1, 3 hour compound incubation, Cisbio pERK HTRF. Type of experiment: cell-based. An outline of the steps: (§1)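 On the first day, plate 6,000 cells into each well in RPMI medium with 10% fetal bovine serum.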
Experiment [8] concerns PSN1 cells. Description: Inhibition of KRas-mediated phosphorylation of ERK (Cisbio HTRF pERK), PSN1 cells. Type of experiment: cell-based. The note with it: Homo sapiens, PSN1, 3 h, 3 hour compound incubation, Cisbio pERK HTRF. A digest of the protocol:
as §1

The subject of experiment [9] is ASPC1 cells. Description: Inhibition of KRas-mediated phosphorylation of ERK (Cisbio HTRF pERK), ASPC1 cells. To be noted: Homo sapiens, ASPC1, 3 h, AsPC-1 cells; 3 hr compound incubation; Cisbio pERK HTRF. The class given is cell-based.
Experiment [10] relates to H727 cells. Description: Inhibition of KRas-mediated phosphorylation of ERK (Cisbio HTRF pERK), H727 cells. To be noted: Homo sapiens, NCI-H727, 3 h, 3 hr compound incubation, Cisbio pERK HTRF. Type of experiment: cell-based.
In experiment [11] the test system is A549 cells. Description: Inhibition of KRas-mediated phosphorylation of ERK (Cisbio HTRF pERK), A549 cells. Type of experiment: cell-based. The note with it: Homo sapiens; for IC50: A549, 3 h, 3 hr compound incubation, Cisbio pERK HTRF; for inhibition at 0.1 µM: single point at 100 nM, 3 hrs compound incubation.
The subject of experiment [12] is H460 cells. Description: Inhibition of KRas-mediated phosphorylation of ERK (Cisbio HTRF pERK), H460 cells. Type of experiment: cell-based. The note with it: Homo sapiens, NCI-H460, 3 h, 3 hr compound incubation, Cisbio pERK HTRF.
Experiment [13] concerns HCT116 cells. Description: Inhibition of KRas-mediated phosphorylation of ERK (Cisbio HTRF pERK), HCT116 cells. Type of experiment: cell-based. The note with it: Homo sapiens, HCT-116, 3 h, 3 hr compound incubation, Cisbio pERK HTRF.
The subject of experiment [14] is H358 cells. As to the kind of experiment: Inhibition of KRas-mediated phosphorylation of ERK (Cisbio HTRF pERK), H358 cells. The note with it: Homo sapiens; for IC50: NCI-H358, 3 h, 3 hr compound incubation, Cisbio pERK HTRF; for inhibition at 0.1 µM: NCI-H358, single point at 100 nM, 3 hrs compound incubation. The class given is cell-based.
For experiment [15], the target named is KRas G12D (Homo sapiens, UniProt P01116, G12D). As to the kind of experiment: biochemical. To be noted: Binding to KRas (IC50 nM) G12D, TR-FRET displacement, KRas G12D.
For experiment [16], the target named is KRas G12R (Homo sapiens, UniProt P01116, G12R). Description: biochemical. To be noted: Binding to KRas (IC50 nM) G12R, TR-FRET displacement, KRas G12R.
Experiment [17] deals with KRas G12V (Homo sapiens, UniProt P01116, G12V). As to the kind of experiment: biochemical. To be noted: Binding to KRas (IC50 nM) G12V, TR-FRET displacement, KRas G12V.

Structures are written as SMILES.

KRas WT, sequence (P01116 1-169 isoform P01116-2): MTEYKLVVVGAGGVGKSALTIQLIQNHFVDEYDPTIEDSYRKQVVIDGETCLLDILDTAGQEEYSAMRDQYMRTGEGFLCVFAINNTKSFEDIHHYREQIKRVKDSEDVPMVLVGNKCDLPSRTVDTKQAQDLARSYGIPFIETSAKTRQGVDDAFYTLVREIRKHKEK
KRas Q61H, sequence (P01116 1-169 isoform P01116-2 Q61H): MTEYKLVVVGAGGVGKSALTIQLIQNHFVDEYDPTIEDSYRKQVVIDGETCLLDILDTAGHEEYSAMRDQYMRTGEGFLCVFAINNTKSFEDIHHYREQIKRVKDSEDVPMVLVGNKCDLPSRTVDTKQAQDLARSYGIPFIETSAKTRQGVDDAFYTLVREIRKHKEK
KRas G12D, sequence (P01116 1-169 isoform P01116-2 G12D): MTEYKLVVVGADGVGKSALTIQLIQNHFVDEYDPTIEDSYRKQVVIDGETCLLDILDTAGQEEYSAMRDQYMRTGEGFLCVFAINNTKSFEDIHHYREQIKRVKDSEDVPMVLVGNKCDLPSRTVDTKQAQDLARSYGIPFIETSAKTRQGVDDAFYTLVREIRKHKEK
KRas G12A, sequence (P01116 1-169 isoform P01116-2 G12A): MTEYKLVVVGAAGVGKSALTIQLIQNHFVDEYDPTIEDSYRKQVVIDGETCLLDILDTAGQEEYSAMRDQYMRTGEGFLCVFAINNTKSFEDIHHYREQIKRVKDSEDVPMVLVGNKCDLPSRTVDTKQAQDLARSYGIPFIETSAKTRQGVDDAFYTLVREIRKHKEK
KRas G12V, sequence (P01116 1-169 isoform P01116-2 G12V): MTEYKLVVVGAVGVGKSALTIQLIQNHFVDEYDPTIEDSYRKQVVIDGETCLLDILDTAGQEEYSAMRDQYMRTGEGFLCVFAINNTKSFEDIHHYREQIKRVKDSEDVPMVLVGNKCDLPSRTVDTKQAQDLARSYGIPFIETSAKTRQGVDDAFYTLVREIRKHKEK
KRas G13D, sequence (P01116 1-169 isoform P01116-2 G13D): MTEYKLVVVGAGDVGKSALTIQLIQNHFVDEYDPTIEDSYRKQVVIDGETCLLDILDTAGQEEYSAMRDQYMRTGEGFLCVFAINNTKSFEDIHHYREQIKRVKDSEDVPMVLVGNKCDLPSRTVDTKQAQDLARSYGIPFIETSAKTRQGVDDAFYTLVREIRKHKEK
KRas G12S, sequence (P01116 1-169 isoform P01116-2 G12S): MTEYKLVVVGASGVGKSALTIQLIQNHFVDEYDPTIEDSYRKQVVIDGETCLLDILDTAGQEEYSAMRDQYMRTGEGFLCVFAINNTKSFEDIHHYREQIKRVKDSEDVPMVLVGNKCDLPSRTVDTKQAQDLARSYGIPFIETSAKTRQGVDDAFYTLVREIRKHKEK
KRas G12R, sequence (P01116 1-169 isoform P01116-2 G12R): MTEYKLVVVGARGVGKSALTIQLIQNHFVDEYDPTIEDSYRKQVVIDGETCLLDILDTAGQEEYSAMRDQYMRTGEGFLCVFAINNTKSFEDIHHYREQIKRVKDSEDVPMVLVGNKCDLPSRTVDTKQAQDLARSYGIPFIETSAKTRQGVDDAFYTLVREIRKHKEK
KRas G12C, sequence (P01116 1-169 isoform P01116-2 G12C): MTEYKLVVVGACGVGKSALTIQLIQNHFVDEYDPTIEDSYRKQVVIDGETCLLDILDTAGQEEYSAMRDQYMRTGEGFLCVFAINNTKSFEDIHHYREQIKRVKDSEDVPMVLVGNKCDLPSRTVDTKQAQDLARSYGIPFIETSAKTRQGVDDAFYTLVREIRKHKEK

Turning to `CCc1c(F)ccc2cc(O)cc(N3CCc4c(nc(OC[C@@]56CCCN5C[C@H](F)C6)nc4N4CCCn5nc(C(=O)NCCOCCOC)cc5C4)C3)c12` [Example 374, 5-(7-(8-ethyl-7-fluoro-3-hydroxynaphthalen-1-yl)-2-(((2R,7aS)-2-fluorohexahydro-1H-pyrrolizin-7a-yl)methoxy)-5,6,7,8-tetrahydropyrido[3,4-d]pyrimidin-4-yl)-N-(2-(2-methoxyethoxy)ethyl)-5,6,7,8-tetrahydro-4H-pyrazolo[1,5-a][1,4]diazepine-2-carboxamide], the inhibition at 0.01 µM in [1] amounted to 95%; in experiment [2], 96%; in experiment [3], 99%; in [4], 99%; in [5], 94%; in [6], 96%. Moreover, the IC50 was 13.5 nM in [7]; 4820 nM in experiment [8]; 4 nM in experiment [9]; 6 nM in experiment [10]; 25 nM in experiment [11]; 35 nM in experiment [12]. In addition, the IC50 was 105 nM in experiment [13]; 5 nM in experiment [14]; less than 2 nM in experiment [15]; less than 2 nM in [16]; less than 2 nM in experiment [17]. In addition, the inhibition at 0.1 µM in [11] is 57%; in [14] it was 99%.

Turning to `CCc1c(F)ccc2cc(O)cc(N3CCc4c(nc(OC[C@@]56CCCN5C[C@H](F)C6)nc4N4CCCn5nc(C(=O)NCCOC)cc5C4)C3)c12` [Example 375, 5-(7-(8-ethyl-7-fluoro-3-hydroxynaphthalen-1-yl)-2-(((2R,7aS)-2-fluorohexahydro-1H-pyrrolizin-7a-yl)methoxy)-5,6,7,8-tetrahydropyrido[3,4-d]pyrimidin-4-yl)-N-(2-methoxyethyl)-5,6,7,8-tetrahydro-4H-pyrazolo[1,5-a][1,4]diazepine-2-carboxamide], the inhibition at 0.01 µM was 93% in experiment [1]; 94% in experiment [2]; 98% in experiment [3]; 98% in experiment [4]; 93% in experiment [5]; 93% in [6]. Moreover, the IC50 was 16.6 nM in experiment [7]; 3500 nM in experiment [8]; 4 nM in experiment [9]; 7 nM in experiment [10]; 20 nM in experiment [11]; 36 nM in experiment [12]. Moreover, the IC50 is 91 nM in [13]; 4 nM in experiment [14]; less than 2 nM in [15]; less than 2 nM in experiment [16]; less than 2 nM in experiment [17]. Besides, the results for the inhibition at 0.1 µM in [11] and in experiment [14] were 68% and 102%, respectively.

With `CCc1c(F)ccc2cc(O)cc(N3CCc4c(nc(OC[C@@]56CCCN5C[C@H](F)C6)nc4N4CCCn5nc(C(=O)NC6CCC6)cc5C4)C3)c12` [Example 378, N-cyclobutyl-5-(7-(8-ethyl-7-fluoro-3-hydroxynaphthalen-1-yl)-2-(((2R,7aS)-2-fluorohexahydro-1H-pyrrolizin-7a-yl)methoxy)-5,6,7,8-tetrahydropyrido[3,4-d]pyrimidin-4-yl)-5,6,7,8-tetrahydro-4H-pyrazolo[1,5-a][1,4]diazepine-2-carboxamide], the inhibition at 0.01 µM in experiment [1] is 91%; in [2] it was 90%; in [3] it was 97%; in [4], 96%; in experiment [5], 90%; in experiment [6] it was 91%. In addition, the half-maximal inhibitory concentration (IC50) was determined as 26.2 nM in experiment [7]; 5170 nM in [8]; 3 nM in experiment [9]; 7 nM in [10]; 39 nM in experiment [11]; 46 nM in [12]. Further, the IC50 was 160 nM in experiment [13]; 9 nM in experiment [14]; less than 2 nM in experiment [15]; less than 2 nM in [16]; less than 2 nM in experiment [17]. Besides, the inhibition at 0.1 µM turned out to be 69% in [11] and 105% in experiment [14].
